Values of other authors in patent US20230065900A1, “COMPOSITIONS AND METHODS FOR MODULATING INFLAMMATION AND WOUND HEALING” (Alastin Skincare, Inc., priority 2020, published 2023).

Test system: hyaluronic acid level
Conditions: ex vivo human skin model

CCCCCCCC(=O)CCc1ccc(O)c(OC)c1 [hydroxymethoxyphenyl decanone]
stimulation of dermal hyaluronic acid level versus placebo: 259%
stimulation of epidermal hyaluronic acid level versus placebo: 198%
